Assay results from patent US9227955B2, “Compound having angiogenesis inhibitory activity, method for preparing same, and pharmaceutical composition comprising same” (Boryung Pharmaceutical Co., Ltd., priority 2011, dated 2016).

assay: Cell viability MTS assay (cytotoxicity); type: cell-based; settings: human; A-431 cells, 48 hrs incubation; read-out: IC50, MTS assay for cytotoxicity against A-431
Procedure: A-431 ([…], human, ATCC CRL-1555™) cells grown in DMEM (Dulbeco's Modified Eagle's Medium, Gibco #11885) were seeded at a density of 1×10^4 cells/well into 96-well plates and incubated at 37° C. for 18 hrs under the supply of 5% CO2 until the cells stably adhered to the bottom. […] After incubation for 48 hrs in the presence of the test compound, the cells were assayed for viability.
The cells in each well was added with 21 μl of a mixture of 20:1 (v/v) of an MTS solution [(3-(4,5-dimethylthiazol-2-yl)-5-(3-carboxymethoxyphenyl)-2-(4-sulfophenyl)-2H-tetrazolium, Promega, Cat#65421; 2 mg/ml] and a PMS solution [Phenazine methosulfate, Sigma #P9625; 1 mg/ml], and incubated for 2 hrs, followed by measuring absorbance at 490 nm on a microplate reader (Molecular device, spectraMax M2). Relative to the control (media), viability by drug concentration was determined from the measurements of formazan, and the results are given in Table 2, below.

| SMILES | IC50 at 48 h [µM] |
| --- | --- |
| O=C(Nc1cccc(Cl)c1)c1cccnc1Nc1ccc(Oc2ccccc2)cc1 [Compound 104, N-(3-Chlorophenyl)-2-(4-phenoxyanilino)nicotinamide] | 28.6 |
| O=C(Nc1ccc(Oc2ccccc2)cc1)c1cccnc1Nc1ccc(Oc2ccccc2)cc1 [Compound 111, 2-(4-Phenoxyanilino)-N-(4-phenoxyphenyl)nicotinamide] | 135 |
| CC1(C)CNc2cc(NC(=O)c3cccnc3NC3CCN(Cc4ccccc4)CC3)ccc21 [Compound 117, 2-(1-Benzylpiperidin-4-ylamino)-N-(3,3-dimethyl-2,3-dihydro-1H-indol-6-yl)nicotinamide] | 91.1 |
| CC1(C)CC(Nc2ncccc2C(=O)Nc2cccc(Cl)c2)CC(C)(C)N1 [Compound 201, N-(3-Chlorophenyl)-2-(2,2,6,6-tetramethylpiperidin-4-ylamino)nicotinamide] | 54.5 |
| CC(C)(C)OC(=O)N1CCC(Nc2ncccc2C(=O)Nc2cccc(Cl)c2)CC1 [Compound 208, N-(3-Chlorophenyl)-2-(1-tert-butoxycarbamoylpiperidin-4-ylamino)nicotinamide] | 86.1 |
| O=C(Nc1cccc(Cl)c1)c1cccnc1NN1CCN(CCO)CC1 [Compound 241, N-(3-Chlorophenyl)-2-[4-(2-hydroxyethyl)piperazin-1-ylamino)nicotinamide] | 164 |
| CC1(C)CC(Nc2ncccc2C(=O)Nc2cccc(Cl)c2)CC(C)(C)N1CCO [Compound 242, N-(3-Chlorophenyl)-2-(1-(2-hydroxyethyl)-2,2,6,6-tetramethylpiperidin-4-ylamino)nicotinamide] | 81.9 |
| C=CCN1CCC(Nc2ncccc2C(=O)Nc2cccc(Cl)c2)CC1 [Compound 243] | 170 |
| CCN(CC)CCN1CCC(Nc2ncccc2C(=O)Nc2cccc(Cl)c2)CC1 [Compound 244, N-(3-chlorophenyl)-2-[1-(2-N,N-diethylamino-ethyl)piperidin-4-ylamino]nicotinamide] | 94.6 |
| O=C(Nc1cccc(Cl)c1)c1cccnc1NC1CCN(C(C(=O)O)C(=O)O)CC1 [Compound 246, 2-(4-(3-(3-Chlorophenylcarbamoyl)pyridin-2-ylamino)piperidin-1-yl)maloic acid] | 101 |
| O=C(Nc1cccc(Cl)c1)c1cccnc1NC1CCN(Cc2cccnc2)CC1 [Compound 249, N-(3-chlorophenyl)-2-[1-(pyridin-3-ylmethyl)piperidin-4-ylamino]nicotinamide] | 102 |
| O=C(Nc1cccc(Cl)c1)c1cccnc1N[C@@H]1CCCN(Cc2ccccc2)C1 [Compound 267, (R)-2-(1-benzylpiperidin-3-ylamino)-N-(3-chlorophenyl)nicotinamide] | 20.9 |
| O=C(Nc1cccc(Cl)c1)c1cccnc1N[C@@H]1CCCNC1 [Compound 269, (R)—N-(3-chlorophenyl)-2-(3-piperidylamino)nicotinamide] | 88.9 |
| O=C(Nc1cccc(Cl)c1)c1cccnc1N[C@H]1CCCN(CCO)C1 [Compound 274, (S)—N-(3-chlorophenyl)-2-[1-(2-hydroxyethyl)piperidin-3-ylamino]nicotinamide] | 111 |
| O=C(Nc1cccc(Cl)c1)c1ccc(Cl)nc1NC1CCN(Cc2ccccc2)CC1 [Compound 301, 2-(1-Benzylpiperidin-4-ylamino)-6-chloro-N-(3-chlorophenyl)nicotinamide] | 67.6 |
| O=C(Nc1cccc(Cl)c1)c1cc(F)c(Cl)nc1NC1CCN(Cc2ccccc2)CC1 [Compound 302, 2-(1-benzylpiperidin-4-ylamino)-6-chloro-N-(3-chlorophenyl)-5-fluoronicotinamide] | 38.1 |
| O=C(Nc1cccc(Cl)c1)c1ccc(Cl)nc1NC1CCN(CCO)CC1 [Compound 311] | 62.3 |
| O=C(NC(Cc1ccccc1)c1ccccc1)c1cccnc1NC1CCN(Cc2ccccc2)CC1 (stereo not drawn) [Compound 426, 2-(1-Benzylpiperidin-4-ylamino)-N-(1,2-diphenylethyl)nicotinamide] | 39.7 |
